Values after ≈ are worked out from the molar mass of the structure shown.
Test system: not listed separately
Test: Maximum plasma concentration in rats after an oral dose of 5 mg/kg
Conditions: rat

SMILES	Cmax [ng/mL]
Cc1c(N2CCC(O)C2)c(F)cn2c(=O)c(C(=O)O)cc(C3CC3)c12 (stereo not drawn)	1420
Cc1c(N2C[C@@H]3CCN[C@@H]3C2)c(F)cn2c(=O)c(C(=O)O)cc(C3CC3)c12 (stereo in doubt; 45o)	1130

Target: T1, DNA gyrase (Escherichia coli) (UniProt P0AES6+P0AES4)
Test: In vivo efficacy against Escherichia coli JUHL after oral administration
Assay type: functional, organism-based
Conditions: Escherichia coli K-12

SMILES	ED50 [mg/kg]
Cc1c(N2CCC(O)C2)c(F)cn2c(=O)c(C(=O)O)cc(C3CC3)c12 (stereo not drawn)	> 5

Target: T1, DNA gyrase (Escherichia coli)
Test: In vivo efficacy against Escherichia coli JUHL by subcutaneous administration
Assay type: functional, organism-based
Conditions: Escherichia coli K-12

SMILES	ED50 [mg/kg]
Cc1c(N2CCC(O)C2)c(F)cn2c(=O)c(C(=O)O)cc(C3CC3)c12 (stereo not drawn)	> 1

Target: T1, DNA gyrase (Escherichia coli)
Test: In vitro antibacterial activity against gram-negative organism […] ATCC 13048
Assay type: functional
Conditions: Enterobacter aerogenes

SMILES	MIC [µg/mL]
Cc1c(N2CCC(O)C2)c(F)cn2c(=O)c(C(=O)O)cc(C3CC3)c12 (stereo not drawn)	0.02 (≈ 0.0577 µM)

Target: T1, DNA gyrase (Escherichia coli)
Test: In vitro antibacterial against gram-negative organism Escherichia coli JUHL
Assay type: functional
Conditions: Escherichia coli K-12

SMILES	MIC [µg/mL]
Cc1c(N2CCC(O)C2)c(F)cn2c(=O)c(C(=O)O)cc(C3CC3)c12 (stereo not drawn)	0.02 (≈ 0.0577 µM)

Target: T1, DNA gyrase (Escherichia coli)
Test: In vitro antibacterial activity against gram-negative organism Klebsiella pneumoniae ATCC 8045
Assay type: functional
Conditions: not given

SMILES	MIC [µg/mL]
Cc1c(N2CCC(O)C2)c(F)cn2c(=O)c(C(=O)O)cc(C3CC3)c12 (stereo not drawn)	0.02 (≈ 0.0577 µM)

Test system: not listed separately
Test: In vivo efficacy against Pseudomonas aeruginosa 5007 after subcutaneous administration
Assay type: functional
Conditions: not given

SMILES	ED50 [mg/kg]
Cc1c(N2C[C@@H]3CCN[C@@H]3C2)c(F)cn2c(=O)c(C(=O)O)cc(C3CC3)c12 (stereo in doubt; 45o)	6.4

Same assay, conditions: Pseudomonas aeruginosa, sc; read-out: ED50

SMILES	ED50 [mg/kg]
Cc1c(N2CCC(O)C2)c(F)cn2c(=O)c(C(=O)O)cc(C3CC3)c12 (stereo not drawn)	> 8

Test system: Pseudomonas aeruginosa
Test: In vivo efficacy against Pseudomonas aeruginosa 5007 by orally administered.
Assay type: functional
Conditions: Pseudomonas aeruginosa, po; read-out: ED50

SMILES	ED50 [mg/kg]
Cc1c(N2C[C@@H]3CCN[C@@H]3C2)c(F)cn2c(=O)c(C(=O)O)cc(C3CC3)c12 (stereo in doubt; 45o)	39.9

Target: T1, DNA gyrase (Escherichia coli)
Test: In vitro antibacterial activity against gram-negative organism Prov. stuartii CMX-640
Assay type: functional
Conditions: Providencia stuartii

SMILES	MIC [µg/mL]
Cc1c(N2CCC(O)C2)c(F)cn2c(=O)c(C(=O)O)cc(C3CC3)c12 (stereo not drawn)	0.2 (≈ 0.577 µM)

Test system: not listed separately
Test: In vitro antibacterial activity against gram-negative organism Pseudomonas aeruginosa 5007
Assay type: functional
Conditions: Pseudomonas aeruginosa; read-out: MIC

SMILES	MIC [µg/mL]
Cc1c(N2CCC(O)C2)c(F)cn2c(=O)c(C(=O)O)cc(C3CC3)c12 (stereo not drawn)	0.2 (≈ 0.577 µM)
Cc1c(N2C[C@@H]3CCN[C@@H]3C2)c(F)cn2c(=O)c(C(=O)O)cc(C3CC3)c12 (stereo in doubt; 45o)	0.39 (≈ 1.05 µM)

Test system: not listed separately
Test: In vitro antibacterial activity against gram-negative organism Pseudomonas aeruginosa DPHD-2862
Assay type: functional
Conditions: Pseudomonas aeruginosa; read-out: MIC

SMILES	MIC [µg/mL]
Cc1c(N2CCC(O)C2)c(F)cn2c(=O)c(C(=O)O)cc(C3CC3)c12 (stereo not drawn)	6.2 (≈ 17.9 µM)
Cc1c(N2C[C@@H]3CCN[C@@H]3C2)c(F)cn2c(=O)c(C(=O)O)cc(C3CC3)c12 (stereo in doubt; 45o)	6.2 (≈ 16.7 µM)

Test system: Staphylococcus aureus
Test: In vivo efficacy against Staphylococcus aureus NCTC-10649M after subcutaneous administration
Assay type: functional
Conditions: sc

SMILES	ED50 [mg/kg]
Cc1c(N2CCC(O)C2)c(F)cn2c(=O)c(C(=O)O)cc(C3CC3)c12 (stereo not drawn)	11.3

Target: T2, DNA gyrase (Staphylococcus aureus) (UniProt P0A0K8+P20831)
Test: In vitro antibacterial activity against gram-positive organism Staphylococcus aureus 1775
Assay type: functional
Conditions: not given

T2 sequence (P0A0K8 2-644 limits assumed): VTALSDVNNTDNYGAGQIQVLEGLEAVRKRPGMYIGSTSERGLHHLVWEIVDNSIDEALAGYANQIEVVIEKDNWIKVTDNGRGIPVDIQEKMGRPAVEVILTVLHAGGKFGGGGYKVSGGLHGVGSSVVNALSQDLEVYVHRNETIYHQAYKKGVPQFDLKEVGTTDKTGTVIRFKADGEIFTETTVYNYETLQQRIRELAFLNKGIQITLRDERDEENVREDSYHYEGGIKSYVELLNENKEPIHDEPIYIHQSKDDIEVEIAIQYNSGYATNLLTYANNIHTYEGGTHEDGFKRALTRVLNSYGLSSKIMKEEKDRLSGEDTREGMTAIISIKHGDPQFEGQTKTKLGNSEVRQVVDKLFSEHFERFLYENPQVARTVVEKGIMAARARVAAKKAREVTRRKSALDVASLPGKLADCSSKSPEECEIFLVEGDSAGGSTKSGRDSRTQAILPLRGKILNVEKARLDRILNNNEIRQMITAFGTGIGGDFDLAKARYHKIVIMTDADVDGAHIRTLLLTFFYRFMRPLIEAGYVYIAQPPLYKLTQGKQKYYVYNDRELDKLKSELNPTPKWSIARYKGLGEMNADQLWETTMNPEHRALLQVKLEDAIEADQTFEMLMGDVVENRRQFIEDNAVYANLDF
T2 sequence (P20831 whole entry partner): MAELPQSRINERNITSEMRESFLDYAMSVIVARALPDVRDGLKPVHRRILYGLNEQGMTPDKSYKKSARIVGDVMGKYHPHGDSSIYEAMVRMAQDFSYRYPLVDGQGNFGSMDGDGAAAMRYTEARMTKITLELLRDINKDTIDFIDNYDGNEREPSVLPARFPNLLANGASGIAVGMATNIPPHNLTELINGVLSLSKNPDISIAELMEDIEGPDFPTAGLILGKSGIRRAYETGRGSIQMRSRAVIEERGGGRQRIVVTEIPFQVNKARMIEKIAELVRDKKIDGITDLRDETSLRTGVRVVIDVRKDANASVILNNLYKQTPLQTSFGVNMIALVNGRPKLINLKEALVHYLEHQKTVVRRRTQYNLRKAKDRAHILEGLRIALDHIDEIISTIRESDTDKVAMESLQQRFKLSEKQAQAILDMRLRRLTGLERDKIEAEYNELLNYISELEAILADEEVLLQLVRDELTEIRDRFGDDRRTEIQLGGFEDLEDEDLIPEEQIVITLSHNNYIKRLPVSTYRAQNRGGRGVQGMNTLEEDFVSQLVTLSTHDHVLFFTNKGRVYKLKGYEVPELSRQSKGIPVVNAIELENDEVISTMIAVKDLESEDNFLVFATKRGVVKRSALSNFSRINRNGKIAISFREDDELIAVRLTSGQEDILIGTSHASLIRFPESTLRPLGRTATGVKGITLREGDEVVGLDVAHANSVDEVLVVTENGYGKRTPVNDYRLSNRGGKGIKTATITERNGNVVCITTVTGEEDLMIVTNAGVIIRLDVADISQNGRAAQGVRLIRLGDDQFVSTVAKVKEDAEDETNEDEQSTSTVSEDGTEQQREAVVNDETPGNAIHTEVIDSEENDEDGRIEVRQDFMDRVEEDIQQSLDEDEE

SMILES	MIC [µg/mL]
Cc1c(N2CCC(O)C2)c(F)cn2c(=O)c(C(=O)O)cc(C3CC3)c12 (stereo not drawn)	0.2 (≈ 0.577 µM)

Target: T2, DNA gyrase (Staphylococcus aureus)
Test: In vitro antibacterial activity against gram-positive organism Staphylococcus aureus ATCC 6538p
Assay type: functional
Conditions: not given

SMILES	MIC [µg/mL]
Cc1c(N2CCC(O)C2)c(F)cn2c(=O)c(C(=O)O)cc(C3CC3)c12 (stereo not drawn)	0.01 (≈ 0.0289 µM)

Target: T2, DNA gyrase (Staphylococcus aureus)
Test: In vitro antibacterial activity against gram-positive organism Staphylococcus aureus NCTC-10649M
Assay type: functional
Conditions: not given

SMILES	MIC [µg/mL]
Cc1c(N2CCC(O)C2)c(F)cn2c(=O)c(C(=O)O)cc(C3CC3)c12 (stereo not drawn)	0.005 (≈ 0.0144 µM)

Target: T1, DNA gyrase (Escherichia coli)
Test: In vitro antibacterial activity against gram-positive organism Streptococcus bovis A-5169
Assay type: functional
Conditions: Streptococcus equinus

SMILES	MIC [µg/mL]
Cc1c(N2CCC(O)C2)c(F)cn2c(=O)c(C(=O)O)cc(C3CC3)c12 (stereo not drawn)	0.05 (≈ 0.144 µM)

Test system: Streptococcus pneumoniae
Test: In vivo efficacy against Strep. administered
Assay type: functional
Conditions: Streptococcus pneumoniae; read-out: ED50

SMILES	ED50 [mg/kg]
Cc1c(N2C[C@@H]3CCN[C@@H]3C2)c(F)cn2c(=O)c(C(=O)O)cc(C3CC3)c12 (stereo in doubt; 45o)	4.5

Test system: Streptococcus pneumoniae
Test: (§1) In vivo efficacy against Strep. administration
Assay type: functional
Conditions: not given

SMILES	ED50 [mg/kg]
Cc1c(N2CCC(O)C2)c(F)cn2c(=O)c(C(=O)O)cc(C3CC3)c12 (stereo not drawn)	7.4

Target: T2, DNA gyrase (Staphylococcus aureus)
Test: In vivo efficacy against Staphylococcus aureus NCTC-10649M after oral administration
Assay type: functional, organism-based
Conditions: not given

SMILES	ED50 [mg/kg]
Cc1c(N2CCC(O)C2)c(F)cn2c(=O)c(C(=O)O)cc(C3CC3)c12 (stereo not drawn)	15.2

Test system: Streptococcus pyogenes
Test: In vitro antibacterial activity against gram-positive organism Streptococcus pyogenes EES61
Assay type: functional
Conditions: Streptococcus pyogenes; read-out: MIC

SMILES	MIC [µg/mL]
Cc1c(N2CCC(O)C2)c(F)cn2c(=O)c(C(=O)O)cc(C3CC3)c12 (stereo not drawn)	0.05 (≈ 0.144 µM)
Cc1c(N2C[C@@H]3CCN[C@@H]3C2)c(F)cn2c(=O)c(C(=O)O)cc(C3CC3)c12 (stereo in doubt; 45o)	0.05 (≈ 0.135 µM)

Target: T1, DNA gyrase (Escherichia coli)
Test: In vitro antibacterial activity against gram-positive organism Enterococcus faecium ATCC 8043
Assay type: functional
Conditions: not given

SMILES	MIC [µg/mL]
Cc1c(N2CCC(O)C2)c(F)cn2c(=O)c(C(=O)O)cc(C3CC3)c12 (stereo not drawn)	0.05 (≈ 0.144 µM)

Test system: Streptococcus pneumoniae
Test: as §1
Assay type: functional
Conditions: not given

SMILES	ED50 [mg/kg]
Cc1c(N2CCC(O)C2)c(F)cn2c(=O)c(C(=O)O)cc(C3CC3)c12 (stereo not drawn)	41.5

Same assay, conditions: Streptococcus pneumoniae; read-out: ED50

SMILES	ED50 [mg/kg]
Cc1c(N2C[C@@H]3CCN[C@@H]3C2)c(F)cn2c(=O)c(C(=O)O)cc(C3CC3)c12 (stereo in doubt; 45o)	7.6

Test system: not listed separately
Test: in vivo
Conditions: rat, plasma, po, 5 mg/kg

SMILES	half-life [h]
Cc1c(N2C[C@@H]3CCN[C@@H]3C2)c(F)cn2c(=O)c(C(=O)O)cc(C3CC3)c12 (stereo in doubt; 45o)	4.1

Test system: not listed separately
Test: in vivo
Conditions: rat, po, 5 mg/kg
Description: Oral bioavailability in rat (dose 5 mg/kg)

SMILES	bioavailability [%]
Cc1c(N2CCC(O)C2)c(F)cn2c(=O)c(C(=O)O)cc(C3CC3)c12 (stereo not drawn)	50
Cc1c(N2C[C@@H]3CCN[C@@H]3C2)c(F)cn2c(=O)c(C(=O)O)cc(C3CC3)c12 (stereo in doubt; 45o)	62

Test system: not listed separately
Test: in vivo
Conditions: rat, plasma, po, 5 mg/kg
Remark: another data set of the same source

SMILES	half-life [h]
Cc1c(N2CCC(O)C2)c(F)cn2c(=O)c(C(=O)O)cc(C3CC3)c12 (stereo not drawn)	5.4

Test system: Pseudomonas aeruginosa
Test: In vivo efficacy against Pseudomonas aeruginosa 5007 following p.o. administration.
Conditions: not given

SMILES	ED50 [mg/kg]
Cc1c(N2CCC(O)C2)c(F)cn2c(=O)c(C(=O)O)cc(C3CC3)c12 (stereo not drawn)	> 50

Reference: ChEMBL document CHEMBL1129258, “Synthesis and structure-activity relationships of 2-pyridones: a novel series of potent DNA gyrase inhibitors as antibacterial agents” (J Med Chem, 1996)
